# In EPA's ToxValDB 9.5:
# Legend:
# Rattus norvegicus = conditions: oral
# Labeo boga = conditions: whole body, M/F
# Monkey = conditions: oral, capsule, Cynomolgus; for NOEL: short-term, duration: 29 days, blood: basophils + blood: eosinophils + blood: lymphocytes + blood: monocytes + blood: reticulocytes + blood: segmented neutrophils + blood…
# [1] = chronic, duration: 14 weeks, diet, M, Crl:CD(SD) BR, non-segmented neutrophils (N-SEG)
# [2] = reproduction developmental, gavage, M/F, Sprague-Dawley, generation: F1, F1: IL-1beta mRNA level relative change: cortex (PND 0) + F1: IL-1beta mRNA level relative change: cortex (PND 21) + F1: IL-1beta mRNA level…
# [3] = reproduction developmental, gavage, M/F, Sprague-Dawley, generation: F1, F1: TNFalpha mRNA level relative change: cortex (PND 0) + F1: TNFalpha mRNA level relative change: cortex (PND 21)
# [4] = short-term, duration: 28 days, diet, F, Sprague-Dawley, spleen: spleen: relative weight + thymus: apoptotic cells in the thymic cortex + thymus: thymus: absolute weight + Total serum IgM level
# [5] = short-term, duration: 28 days, diet, M, Sprague-Dawley, spleen: spleen: absolute weight + thymus: thymus: absolute weight
# [6] = short-term, duration: 28 days, diet, M, Sprague-Dawley, thymus: apoptotic cells in the thymic cortex + thymus: apoptotic cells in the thymic medulla
# [7] = chronic, duration: 26 weeks, M, lymphocyte count (%) (Day 182)
smiles,measurement,setting,value
O=S(=O)(O)C(F)(F)C(F)(F)C(F)(F)C(F)(F)C(F)(F)C(F)(F)C(F)(F)C(F)(F)F [Perfluorooctanesulfonic acid],NOEL,"Rattus norvegicus; chronic, duration: 14 weeks, diet, F, Crl:CD(SD) BR, non-segmented neutrophils (N-SEG)",1.56 mg/kg-day
same,LOEL,Rattus norvegicus; [1],1.33 mg/kg-day
same,NOEL,Rattus norvegicus; [1],0.34 mg/kg-day
same,NOEL,"Rattus norvegicus; chronic, duration: 104 weeks, diet, F, Crl:CD(SD) BR, blood: basophils + blood: eosinophils + blood: monocytes + blood: white blood cell count (WBC) + spleen: spleen: absolute weight (53 weeks…",1.56 mg/kg-day
same,LOEL,"Rattus norvegicus; chronic, duration: 104 weeks, diet, F, Crl:CD(SD) BR, blood: lymphocytes + blood: segmented neutrophils",0.039 mg/kg-day
same,NOEL,"Rattus norvegicus; chronic, duration: 104 weeks, diet, F, Crl:CD(SD) BR, spleen: spleen: absolute weight (14 weeks)",0.39 mg/kg-day
same,LOEL,"Rattus norvegicus; chronic, duration: 104 weeks, diet, F, Crl:CD(SD) BR, spleen: spleen: absolute weight (14 weeks) + spleen: spleen: relative weight (53 weeks)",1.56 mg/kg-day
same,NOEL,"Rattus norvegicus; chronic, duration: 104 weeks, diet, M, Crl:CD(SD) BR, blood: basophils + blood: eosinophils + blood: monocytes + blood: white blood cell count (WBC) + spleen: spleen: absolute weight (14 weeks…",1.56 mg/kg-day
same,LOEL,"Rattus norvegicus; chronic, duration: 104 weeks, diet, M, Crl:CD(SD) BR, blood: lymphocytes + blood: segmented neutrophils",0.039 mg/kg-day
same,LOEL,"Rattus norvegicus; chronic, duration: 104 weeks, diet, M, Crl:CD(SD) BR, spleen: spleen: absolute weight (53 weeks) + spleen: spleen: relative weight (53 weeks)",1.56 mg/kg-day
same,LOEL,Rattus norvegicus; [2],0.6 mg/kg-day
same,NOEL,Rattus norvegicus; [2],0.1 mg/kg-day
same,LOEL,"Rattus norvegicus; reproduction developmental, gavage, M/F, Sprague-Dawley, generation: F1, F1: IL-1beta mRNA level relative change: hippocampus (PND 0) + F1: TNFalpha mRNA level relative change: hippocampus (PND 0)",0.1 mg/kg-day
same,LOEL,Rattus norvegicus; [3],2 mg/kg-day
same,NOEL,Rattus norvegicus; [3],0.6 mg/kg-day
same,NOEL,"Rattus norvegicus; short-term, duration: 28 days, diet, F, Sprague-Dawley, blood: blood CD3+ cells + blood: blood CD3+CD4+ cells + blood: blood CD3+CD8+ cells + blood: blood CD45RA+ cells + IgG antibody titer (KLH…",100 ppm
same,LOEL,Rattus norvegicus; [4],100 ppm
same,NOEL,Rattus norvegicus; [4],50 ppm
same,LOEL,"Rattus norvegicus; short-term, duration: 28 days, diet, M, Sprague-Dawley, Total serum IgG1 level",2 ppm
same,NOEL,"Rattus norvegicus; short-term, duration: 28 days, diet, M, Sprague-Dawley, blood CD3+ cells + blood: blood CD3+ cells + blood: blood CD3+CD4+ cells + blood: blood CD3+CD8+ cells + blood: blood CD45RA+ cells + IgG …",100 ppm
same,LOEL,Rattus norvegicus; [5],100 ppm
same,NOEL,Rattus norvegicus; [5],50 ppm
same,LOEL,Rattus norvegicus; [6],50 ppm
same,NOEL,Rattus norvegicus; [6],20 ppm
same,NOEL,"Labeo boga; short-term, duration: 7 day, Oryzias Melastigma, mRNA level for C8 gene + mRNA level for CAT gene + mRNA level for CCL20 gene + mRNA level for Cd3 gene + mRNA level for GPx gene",1 mg/L
same,LOEL,"Labeo boga; short-term, duration: 7 day, Oryzias Melastigma, mRNA level for IL1b gene",0.25 mg/L
same,LOEL,"Labeo boga; short-term, duration: 10 day, Medaka, relative IL-1-beta mRNA expression + relative IL-8 mRNA expression + relative TNF-alpha mRNA expression",1 mg/L
same,NOEL,"Labeo boga; short-term, duration: 16 day, Thicklip grey mullet, relative apoA1 expression in liver (Day 2) + relative cc3 expression in liver (Day 16) + relative cc3 expression in liver (Day 2) + relative…",2 ppm
same,LOEL,"Labeo boga; short-term, duration: 16 day, Thicklip grey mullet, relative apoA1 expression in liver (Day 16) + relative fabp expression in liver (Day 2)",2 ppm
same,LOEL,"Labeo boga; short-term, duration: 21 day, Atlantic Salmon, cortisol",0.1 mg/L
same,LOEL,"Labeo boga; subchronic, duration: 48 day, Atlantic Salmon, cortisol",0.1 mg/L
same,NOEL,"Labeo boga; subchronic, duration: 48 day, Atlantic Salmon, fresh weight + length + thymus: thymus somatic index + thymus: thymus volume",0.1 mg/L
same,LOEL,"Labeo boga; subchronic, duration: 56 day, Atlantic Salmon, cortisol",0.1 mg/L
same,NOEL (TAD),"Monkey; chronic, duration: 26 weeks, F, lymphocyte count (Day 182) + lymphocyte count (LYMPH) (Day 182) + segmented neutrophil count (Day 182) + segmented neutrophil count (N-SEG…",115 mg/kg-day
same,LOEL (TAD),Monkey; [7],115 mg/kg-day
same,NOEL (TAD),Monkey; [7],22.9 mg/kg-day
same,NOEL (TAD),"Monkey; chronic, duration: 26 weeks, M, lymphocyte count (LYMPH) (Day 182) + segmented neutrophil count (%) (Day 182) + segmented neutrophil count (N-SEG) (Day 182)",115 mg/kg-day
same,NOEL,Monkey; F,2 mg/kg-day
same,NOEL,Monkey; M,2 mg/kg-day
